Test results from patent US10975060B2, “High relaxivity gadolinium chelate compounds for use in magnetic resonance imaging” (BAYER PHARMA AKTIENGESELLSCHAFT, priority 2016, dated 2021).

Tests used:
Assay type in all cases: physicochemical
[1] = Relaxivity measurements at 1.4 T (MiniSpec mq60, 60 MHz, 37 °C) in water and human plasma; settings: 1.41 T, normalized to Gd
Procedure: Relaxivity Measurements at 1.4 T
Relaxivity measurements at 1.41 T were performed using a MiniSpec mq60 spectrometer (Bruker Analytik, Karlsruhe, Germany) operating at a resonance frequency of 60 MHz and a temperature of 37° C. The T1 relaxation times were determined using the standard inversion recovery (IR) method with a fixed relaxation delay of at least 5×T1. The variable inversion time (TI) was calculated automatically by the standard software of the MiniSpec mq60 (8 steps). The T2 measurements were done by using a Carr-Purcell-Meiboom-Gill (CPMG) pulse sequence, applying a relaxation delay of at least 5×T1.
Each relaxivity measurement was performed using three different Gd concentrations (3 concentrations between 0.05 and 2 mM). The T1 and T2 relaxation times of the example compounds 1 to 10 were measured in different media for example in water and human plasma. Human plasma preparation: For each experiment fresh blood was taken from a volunteer using 10 mL citrate-tubes (Sarstedt S-Monovette 02.1067.001, 10 mL, Citrate). The 10 mL citrate-tubes were carefully inverted 10 times to mix blood and anticoagulant and centrifuged for 15 minutes at 1811 g at room temperature (Eppendorf, Centrifuge 5810R).
The relaxivities ri (where i=1, 2) were calculated on the basis of the measured relaxation rates Ri in water and plasma: Ri=Ri(0)+ri[CGd], where Ri(0) represent the relaxation rate of the respective solvent and CGd the concentration of the compound normalized to the Gadolinium. The Gadolinium concentrations of the investigated solutions were verified by Inductively Coupled Plasma Mass Spectrometry (ICP-MS Agilent 7500a, Waldbronn, Germany).

[2] = Relaxivity measurements at 3.0 T (whole body MRI scanner, 37 °C) in water and human plasma; settings: normalized to Gd, average ± standard deviation
Procedure: Relaxivity Measurements at 3.0 T
Relaxivity measurements at 3.0 T were performed with a whole body 3.0 T MRI Scanner (Philips Intera, Philips Healthcare, Hamburg, Germany) using a knee-coil (SENSE-Knee-8, Philips Healthcare, Hamburg, Germany). The sample tubes (CryoTubetm Vials, Thermo Scientific 1.8 mL, Roskilde, Denmark) were positioned in 3 rows of 4 and 5 tubes in a plastic holder in a box filled with water. The temperature was adjusted to 37° C. For the MRI sequence the shortest possible echo-time (TE) with 7.46 milliseconds was used. The inversion times were chosen to optimize the sequence to measure T1 values corresponding to the estimated T1 range of all relaxation times of contrast media containing solutions. The following inversion times (TIs) were applied: 50, 100, 150, 200, 300, 500, 700, 1000, 1400, 2100, 3200, and 4500 milliseconds. The sequence was run with a constant relaxation delay of 3.4 seconds after the registration of the last echo (variable TR in the range from 3450 to 7900 milliseconds). For details of the fit procedure, see Rohrer et. al. (Invest. Radiol. 2005; 40, 11: 715-724). The experimental matrix of the phantom measurement was 320×320.
The relaxivities were evaluated using three different concentrations of each compound (3 concentrations between 0.05 and 2 mM).
The T1 relaxation times of Example compounds were measured in water and human plasma. Human plasma preparation: For each experiment fresh blood was taken from a volunteer using 10 mL citrate-tubes (Sarstedt S-Monovette 02.1067.001, 10 mL, Citrate). The 10 mL citrate-tubes were carefully inverted 10 times to mix blood and anticoagulant and centrifuged for 15 minutes at 1811 g at room temperature (Eppendorf, Centrifuge 5810R).
The relaxivities ri (where i=1, 2) were calculated on the basis of the measured relaxation rates Ri in water and plasma: Ri=Ri(0)+ri[CGd], where Ri(0) represent the relaxation rate of the respective solvent and CGd the concentration of the compound normalized to the Gadolinium (Table 2).

[3] = Water solubility (exploratory, 10 mM Tris-HCl, 20 °C); settings: water (10 mM Tris-HCl buffer), pH 7.4
Procedure: The exploratory water solubilities of the compounds were determined at room temperature (20° C.) in 0.5 mL buffer solution (10 mM Tris-HCl) in the microcentrifuge tubes (Eppendorf, 2.0 mL safe-lock caps). The solid compounds were added stepwise to the buffer solution. The suspension was mixed using a shaker (Heidolph Reax 2000) and treated 5 min in an ultrasound bath (Bandelin, Sonorex Super RK255H).

[4] = Dynamic CT diffusion phantom study (dialysis cassette in fetal bovine serum); settings: dialysis cassette 20,000 MWCO, 20 mmol Gd/L, CT signal over 30 h
Procedure: The described dynamic CT diffusion study compares the ability of Examples 1-10 and Reference compounds 1 and 4 to pass a semipermeable membrane (20 kDa). A 128-row clinical CT device (SOMATOM Definition, 128; Siemens Healthcare, Forchheim, Germany) was used to monitor the diffusion through a semipermeable membrane at 100 kV and 104 mA. Single measurements were performed at 0 min, 1 min, 2 min, 3 min, 5 min, 10 min, 15 min, 20 min, 30 min, 45 min, 60 min, 2 h, 3 h, 5 h, 7 h, 22 h, 24 h, 30 h after placing the dialysis cassette (Slide-A-Lyser, 20,000 MWCO, 0.1-0.5 mL Capacity, Thermo Scientific, Roskilde, Denmark) filled with contrast agent in fetal bovine serum solution (FBS, Sigma, F7524). The images were reconstructed with a slice thickness of 2.4 mm and a B30 convolution kernel. The used concentration in the dialysis cassettes of the investigated Examples 1-10 and Reference compounds 1 and 4 was 20 mmol Gd/L.
The imaging results for all investigated Examples and the Reference compounds 1 and 4 for the time points 0 min and 30 h after placing the cassettes in the FBS solution are depicted in FIG. 1. For image analysis, regions of interest were manually drawn on 1 centrally located slice for each time point (a representative measurement region is indicated in FIG. 1: Image RC1).

Structure (SMILES)	r1 human plasma [1]	r1 water [1]	r1 human plasma [2]	r1 water [2]	Solubility [3]	Diffusion half-live (20 kDa) [4]
O=C([O-])CN1CCN(CC(=O)[O-])CCN(CC(=O)N(CC(=O)NCC(CNC(=O)CN(C(=O)CN2CCN(CC(=O)[O-])CCN(CC(=O)[O-])CCN(CC(=O)[O-])CC2)C2CC2)(CNC(=O)CN(C(=O)CN2CCN(CC(=O)[O-])CCN(CC(=O)[O-])CCN(CC(=O)[O-])CC2)C2CC2)CNC(=O)CN(C(=O)CN2CCN(CC(=O)[O-])CCN(CC(=O)[O-])CCN(CC(=O)[O-])CC2)C2CC2)C2CC2)CCN(CC(=O)[O-])CC1.[Gd+3].[Gd+3].[Gd+3].[Gd+3] [Example 7, Tetragadolinium [4,10-bis(carboxylatomethyl)-7-{3,13-dicyclopropyl-8,8-bis({[(cyclopropyl{[4,7,10-tris(carboxylatomethyl)-1,4,7,10-tetraazacyclododecan-1-yl]acetyl}-amino)acetyl]amino}methyl)-2,5,11,14-tetraoxo-15-[4,7,10-tris(carboxylatomethyl)-1,4,7,10-tetraazacyclododecan-1-yl]-3,6,10,13-tetraazapentadec-1-yl}-1,4,7,10-tetra-azacyclododecan-1-yl]acetate]	12.1 L/mmol/s	10.6 L/mmol/s	11.1 ± 0.1 L/mmol/s	9.7 ± 0.1 L/mmol/s	>1000 mg/100 mL	14.0 h
O=C([O-])CN1CCN(CC(=O)[O-])CCN(CC(=O)N(CC(=O)NCC(CNC(=O)CN(C(=O)CN2CCN(CC(=O)[O-])CCN(CC(=O)[O-])CCN(CC(=O)[O-])CC2)C2CCCC2)(CNC(=O)CN(C(=O)CN2CCN(CC(=O)[O-])CCN(CC(=O)[O-])CCN(CC(=O)[O-])CC2)C2CCCC2)CNC(=O)CN(C(=O)CN2CCN(CC(=O)[O-])CCN(CC(=O)[O-])CCN(CC(=O)[O-])CC2)C2CCCC2)C2CCCC2)CCN(CC(=O)[O-])CC1.[Gd+3].[Gd+3].[Gd+3].[Gd+3] [Example 8, Tetragadolinium [4,10-bis(carboxylatomethyl)-7-{3,13-dicyclopentyl-8,8-bis({[(cyclopentyl{[4,7,10-tris(carboxylatomethyl)-1,4,7,10-tetraazacyclododecan-1-yl]acetyl}-amino)acetyl]amino}methyl)-2,5,11,14-tetraoxo-15-[4,7,10-tris(carboxylatomethyl)-1,4,7,10-tetraazacyclododecan-1-yl]-3,6,10,13-tetraazapentadec-1-yl}-1,4,7,10-tetra-azacyclododecan-1-yl]acetate]	14.1 L/mmol/s	11.7 L/mmol/s	12.0 ± 0.4 L/mmol/s	10.7 ± 0.1 L/mmol/s	>1000 mg/100 mL	10.5 h
COCCN(CC(=O)NCC(CNC(=O)CN(CCOC)C(=O)CN1CCN(CC(=O)[O-])CCN(CC(=O)[O-])CCN(CC(=O)[O-])CC1)(CNC(=O)CN(CCOC)C(=O)CN1CCN(CC(=O)[O-])CCN(CC(=O)[O-])CCN(CC(=O)[O-])CC1)CNC(=O)CN(CCOC)C(=O)CN1CCN(CC(=O)[O-])CCN(CC(=O)[O-])CCN(CC(=O)[O-])CC1)C(=O)CN1CCN(CC(=O)[O-])CCN(CC(=O)[O-])CCN(CC(=O)[O-])CC1.[Gd+3].[Gd+3].[Gd+3].[Gd+3] [Example 3, Tetragadolinium {4,10-bis(carboxylatomethyl)-7-[15-(2-methoxyethyl)-10,10-bis[({[(2-methoxyethyl){[4,7,10-tris(carboxylatomethyl)-1,4,7,10-tetraazacyclododecan-1-yl]-acetyl}amino]acetyl}amino)methyl]-7,13,16-trioxo-5-{[4,7,10-tris(carboxylatomethyl)-1,4,7,10-tetraazacyclododecan-1-yl]acetyl}-2-oxa-5,8,12,15-tetraazaheptadecan-17-yl]-1,4,7,10-tetraazacyclododecan-1-yl}acetate]	11.7 L/mmol/s	10.3 L/mmol/s	10.9 ± 0.1 L/mmol/s	9.5 ± 0.1 L/mmol/s	>1000 mg/100 mL	11.6 h
CC(C)N(CC(=O)NCC(CNC(=O)CN(C(=O)CN1CCN(CC(=O)[O-])CCN(CC(=O)[O-])CCN(CC(=O)[O-])CC1)C(C)C)(CNC(=O)CN(C(=O)CN1CCN(CC(=O)[O-])CCN(CC(=O)[O-])CCN(CC(=O)[O-])CC1)C(C)C)CNC(=O)CN(C(=O)CN1CCN(CC(=O)[O-])CCN(CC(=O)[O-])CCN(CC(=O)[O-])CC1)C(C)C)C(=O)CN1CCN(CC(=O)[O-])CCN(CC(=O)[O-])CCN(CC(=O)[O-])CC1.[Gd+3].[Gd+3].[Gd+3].[Gd+3] [Example 5, Tetragadolinium [4,10-bis(carboxylatomethyl)-7-{3,13-diisopropyl-8,8-bis({[(isopropyl-{[4,7,10-tris(carboxylatomethyl)-1,4,7,10-tetraazacyclododecan-1-yl]acetyl}amino)-acetyl]amino}methyl)-2,5,11,14-tetraoxo-15-[4,7,10-tris(carboxylatomethyl)-1,4,7,10-tetraazacyclododecan-1-yl]-3,6,10,13-tetraazapentadec-1-yl}-1,4,7,10-tetraazacyclo-dodecan-1-yl]acetate]	13.1 L/mmol/s	11.1 L/mmol/s	11.6 ± 0.4 L/mmol/s	10.2 ± 0.1 L/mmol/s	>1000 mg/100 mL	10.8 h
